Source: ChEMBL document CHEMBL5729675, “Sulfonamide compound or salt thereof” (2023)

Target: Ribonucleotide reductase (Homo sapiens, UniProt P23921+Q7LG56)
Assay: Human RNR Inhibition Effect: The inhibitory activity against the ribonucleotide reduction reaction (hereinafter referred to as RNR reaction) of the test compound was determined by measuring the formation of deoxycytidine diphosphate (hereinafter referred to as dCDP) from cytidine diphosphate (hereinafter referred to as CDP) by the following method.Human M1 subunit and human M2 subunit (mutant …

Sequence of Ribonucleotide reductase (P23921 whole entry, looked up): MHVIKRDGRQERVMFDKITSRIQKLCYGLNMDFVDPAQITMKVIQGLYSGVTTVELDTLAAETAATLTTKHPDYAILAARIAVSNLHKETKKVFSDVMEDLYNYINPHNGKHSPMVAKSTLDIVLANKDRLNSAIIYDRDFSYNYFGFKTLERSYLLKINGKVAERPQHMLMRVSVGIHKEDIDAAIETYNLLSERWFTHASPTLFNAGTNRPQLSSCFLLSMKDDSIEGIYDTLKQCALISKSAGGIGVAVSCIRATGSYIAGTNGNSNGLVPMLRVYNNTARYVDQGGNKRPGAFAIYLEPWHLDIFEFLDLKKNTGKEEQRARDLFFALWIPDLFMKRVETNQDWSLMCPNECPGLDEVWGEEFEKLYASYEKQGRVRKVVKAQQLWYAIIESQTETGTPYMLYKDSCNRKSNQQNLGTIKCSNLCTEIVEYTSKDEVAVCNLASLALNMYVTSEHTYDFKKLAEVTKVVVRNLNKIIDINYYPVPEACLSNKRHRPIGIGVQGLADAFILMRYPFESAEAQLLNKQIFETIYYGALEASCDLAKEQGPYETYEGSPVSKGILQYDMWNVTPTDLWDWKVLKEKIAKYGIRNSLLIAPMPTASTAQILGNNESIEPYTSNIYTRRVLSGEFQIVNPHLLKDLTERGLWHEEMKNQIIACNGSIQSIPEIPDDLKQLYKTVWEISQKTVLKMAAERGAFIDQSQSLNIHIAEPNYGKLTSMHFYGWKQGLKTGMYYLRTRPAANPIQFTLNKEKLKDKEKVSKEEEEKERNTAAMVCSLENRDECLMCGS
Sequence of Ribonucleotide reductase (Q7LG56 whole entry, looked up): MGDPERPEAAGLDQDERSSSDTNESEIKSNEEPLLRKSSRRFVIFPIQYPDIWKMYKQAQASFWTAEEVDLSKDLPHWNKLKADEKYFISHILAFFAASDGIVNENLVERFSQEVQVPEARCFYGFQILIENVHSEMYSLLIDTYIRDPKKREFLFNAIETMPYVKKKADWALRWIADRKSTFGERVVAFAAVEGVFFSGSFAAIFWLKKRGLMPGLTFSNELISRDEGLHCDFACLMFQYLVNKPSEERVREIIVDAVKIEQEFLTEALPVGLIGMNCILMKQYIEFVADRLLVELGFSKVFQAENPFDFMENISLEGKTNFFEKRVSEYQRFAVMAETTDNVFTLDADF

Row | Structure (SMILES) | IC50 [µM]
1 | Cc1ccc(F)c([C@@H](C)[C@H](NS(=O)(=O)c2ccc(Cl)cc2C(N)=O)c2n[nH]c(=O)o2)c1Cl | 0.5
2 | CCN1CCOc2c(S(=O)(=O)N[C@H](c3n[nH]c(=O)o3)[C@H](C)c3c(F)ccc(C)c3C)ccc(Cl)c21 | 0.11
3 | Cc1ccc(F)c([C@@H](C)[C@H](NS(=O)(=O)c2cc(C(=O)N3CCOCC3)ccc2C(N)=O)c2n[nH]c(=O)o2)c1C | 0.11
4 | COc1cc(Cl)ccc1S(=O)(=O)N[C@H](c1n[nH]c(=O)o1)C(C)c1c(F)c(F)cc(C)c1Br (stereo not given in full) | 0.42
5 | Cc1ccc(F)c([C@@H](C)[C@H](NS(=O)(=O)c2cc(C(=O)O)c(Cl)cc2C(N)=O)c2n[nH]c(=O)o2)c1C | 0.19
6 | Cc1cc(F)cc([C@@H](C)[C@H](NS(=O)(=O)c2ccc(Cl)cc2C(N)=O)c2n[nH]c(=O)o2)c1C | 0.45
7 | Cc1c(Cl)ccc(F)c1[C@@H](C)[C@H](NS(=O)(=O)c1ccc(Cl)cc1C(N)=O)c1n[nH]c(=O)o1 | 0.25
8 | Cc1ccc(F)c([C@@H](C)[C@H](NS(=O)(=O)c2ccc(Cl)cc2C#N)c2n[nH]c(=O)o2)c1C | 0.36
9 | Cc1ccc(F)c([C@@H](C)[C@H](NS(=O)(=O)c2ccc(Cl)cc2-c2ccno2)c2n[nH]c(=O)o2)c1C | 0.23
10 | Cc1ccc(F)c([C@@H](C)[C@H](NS(=O)(=O)c2cc(C(=O)N(C)C)ccc2C(N)=O)c2n[nH]c(=O)o2)c1C | 0.14
11 | Cc1c(Br)ccc(F)c1[C@@H](C)[C@H](NS(=O)(=O)c1ccc(C(F)(F)F)cc1C(N)=O)c1n[nH]c(=O)o1 | 0.2
12 | Cc1c(F)ccc(F)c1[C@@H](C)[C@H](NS(=O)(=O)c1ccc(Cl)cc1C(N)=O)c1n[nH]c(=O)o1 | 0.5
13 | Cc1c(Br)ccc(F)c1[C@@H](C)[C@H](NS(=O)(=O)c1ccc(Cl)cc1C(N)=O)c1n[nH]c(=O)o1 | 0.15
14 | CCc1ccc(F)c([C@@H](C)[C@H](NS(=O)(=O)c2ccc(Cl)cc2C(N)=O)c2n[nH]c(=O)o2)c1C | 0.18
15 | Cc1c(C(F)(F)F)ccc(F)c1[C@@H](C)[C@H](NS(=O)(=O)c1ccc(Cl)cc1C(N)=O)c1n[nH]c(=O)o1 | 0.55
16 | Cc1ccc(F)c([C@@H](C)[C@H](NS(=O)(=O)c2cnc(Cl)cc2C(N)=O)c2n[nH]c(=O)o2)c1C | 0.13
17 | Cc1ccc(F)c([C@@H](C)[C@H](NS(=O)(=O)c2ccc(Cl)c3c2OCCC3=O)c2n[nH]c(=O)o2)c1C | 0.15
18 | COc1cc(Cl)ccc1S(=O)(=O)N[C@H](c1n[nH]c(=O)o1)[C@H](C)c1c(C)c(C)cc(F)c1F | 0.16
19 | Cc1c(C2CC2)ccc(F)c1[C@@H](C)[C@H](NS(=O)(=O)c1ccc(Cl)cc1C(N)=O)c1n[nH]c(=O)o1 | 0.16
20 | Cc1ccc(F)c([C@@H](C)[C@H](NS(=O)(=O)c2ccc(C(F)(F)F)cc2C(N)=O)c2n[nH]c(=O)o2)c1C | 0.1
21 | Cc1ccc(F)c([C@@H](C)[C@H](NS(=O)(=O)c2ccc(Cl)c3c2OCC(=O)N3C)c2n[nH]c(=O)o2)c1C | 0.1
22 | Cc1ccc(S(=O)(=O)N[C@H](c2n[nH]c(=O)o2)[C@H](C)c2c(F)ccc(C)c2C)c(C(N)=O)c1 | 0.14
23 | Cc1ccc(F)c([C@@H](C)[C@H](NS(=O)(=O)c2cc(C(=O)N(C)C)c(Cl)cc2C(N)=O)c2n[nH]c(=O)o2)c1C | 0.04
24 | Cc1ccc(F)c([C@@H](C)[C@H](NS(=O)(=O)c2ccc(C3CC3)cc2C(N)=O)c2n[nH]c(=O)o2)c1C | 0.13
25 | CCc1ccc(S(=O)(=O)N[C@H](c2n[nH]c(=O)o2)[C@H](C)c2c(F)ccc(C)c2C)c(C(N)=O)c1 | 0.13
26 | Cc1ccc(F)c([C@@H](C)[C@H](NS(=O)(=O)c2cccc3c2OC(C)(C)CC3=O)c2n[nH]c(=O)o2)c1C | 0.24
27 | Cc1ccc(F)c([C@@H](C)[C@H](NS(=O)(=O)c2ccc(Cl)nc2C(N)=O)c2n[nH]c(=O)o2)c1C | 0.19
28 | COc1cc(Cl)ccc1S(=O)(=O)N[C@H](c1n[nH]c(=O)o1)[C@H](C)c1c(F)ccc(C)c1C | 0.14
29 | Cc1cc(F)c(F)c([C@@H](C)[C@H](NS(=O)(=O)c2ccc(Cl)cc2C(N)=O)c2n[nH]c(=O)o2)c1C | 0.14
30 | Cc1ccc(F)c([C@@H](C)[C@H](NS(=O)(=O)c2ccc(Cl)cc2C(N)=O)c2n[nH]c(=O)o2)c1 | 0.24

Other lines, results leading:

Row | IC50 [µM] | Structure (SMILES)
31 | 0.15 | Cc1c(Cl)ccc(F)c1[C@@H](C)[C@H](NS(=O)(=O)c1ccc(Br)cc1C(N)=O)c1n[nH]c(=O)o1
32 | 0.06 | Cc1ccc(F)c([C@@H](C)[C@H](NS(=O)(=O)c2ccc(Br)cc2C(N)=O)c2n[nH]c(=O)o2)c1C
33 | 0.24 | COc1cc(Cl)ccc1S(=O)(=O)N[C@H](c1n[nH]c(=O)o1)[C@H](C)c1cccc2cccc(C)c12
34 | 0.38 | Cc1cccc([C@@H](C)[C@H](NS(=O)(=O)c2ccc(Br)cc2C(N)=O)c2n[nH]c(=O)o2)c1C
35 | 0.84 | C[C@H](c1cccc2ccccc12)[C@H](NS(=O)(=O)c1ccc(Cl)cc1Cl)c1n[nH]c(=O)o1
36 | 0.84 | COc1cc(Cl)ccc1S(=O)(=O)N[C@H](c1n[nH]c(=O)o1)[C@H](C)c1cccc(C)c1C(C)C
37 | 0.1 | C[C@H](c1c(F)ccc2ccccc12)[C@H](NS(=O)(=O)c1ccc(Br)cc1C(N)=O)c1n[nH]c(=O)o1
38 | 0.1 | CCc1ccc(F)c([C@@H](C)[C@H](NS(=O)(=O)c2ccc(Br)cc2C(N)=O)c2n[nH]c(=O)o2)c1C
39 | 0.2 | Cc1ccc(F)c([C@@H](C)[C@H](NS(=O)(=O)c2ccc(Br)cc2C#N)c2n[nH]c(=O)o2)c1C
40 | 0.11 | C[C@H](c1c(F)ccc2ccccc12)[C@H](NS(=O)(=O)c1ccc(Cl)cc1C(N)=O)c1n[nH]c(=O)o1
41 | 0.2 | COc1cc(Cl)ccc1S(=O)(=O)N[C@H](c1n[nH]c(=O)o1)[C@H](C)c1c(F)ccc2ccccc12
42 | 0.77 | C[C@H](c1cccc2c1CCCC2)[C@H](NS(=O)(=O)c1ccc(Cl)cn1)c1n[nH]c(=O)o1
43 | 0.3 | Cc1cccc([C@@H](C)[C@H](NS(=O)(=O)c2ccc(Cl)cc2C(N)=O)c2n[nH]c(=O)o2)c1C
44 | 0.6 | CC1CCc2cccc(C(C)[C@H](NS(=O)(=O)c3ccc(Br)cn3)c3n[nH]c(=O)o3)c21 (stereo not given in full)
45 | 0.99 | C[C@H](c1cccc2c1CCC2)[C@H](NS(=O)(=O)c1ccc(Br)cc1F)c1n[nH]c(=O)o1
46 | 0.13 | Cc1c(Br)ccc(F)c1[C@@H](C)[C@H](NS(=O)(=O)c1ccc(Br)cc1C(N)=O)c1n[nH]c(=O)o1
47 | 0.28 | Cc1cccc2cccc([C@@H](C)[C@H](NS(=O)(=O)c3ccc(Cl)c4c3OCCC4(F)F)c3n[nH]c(=O)o3)c12
48 | 0.17 | Cc1ccc(S(=O)(=O)N[C@H](c2n[nH]c(=O)o2)[C@H](C)c2c(F)ccc3ccccc23)c(C(N)=O)c1
49 | 0.4 | CCc1cccc([C@@H](C)[C@H](NS(=O)(=O)c2ccc(Cl)cc2OC)c2n[nH]c(=O)o2)c1C
50 | 0.6 | C[C@H](c1cc(F)cc2ccccc12)[C@H](NS(=O)(=O)c1ccc(Cl)cc1C(N)=O)c1n[nH]c(=O)o1
51 | 0.7 | COc1cc(Cl)ccc1S(=O)(=O)N[C@H](c1n[nH]c(=O)o1)[C@H](C)c1cccc2c1CC(C)C2 (stereo not given in full)
52 | 0.26 | Cc1ccc(F)c([C@@H](C)[C@H](NS(=O)(=O)c2ccccc2C(N)=O)c2n[nH]c(=O)o2)c1C
53 | 0.1 | Cc1ccc(F)c([C@@H](C)[C@H](NS(=O)(=O)c2ccc(Cl)c(C(N)=O)n2)c2n[nH]c(=O)o2)c1C
54 | 0.85 | C[C@H](c1cccc2c1-c1ccccc1C2)[C@H](NS(=O)(=O)c1ccc(Br)cn1)c1n[nH]c(=O)o1
55 | 0.8 | C[C@H](c1cccc2c1Cc1ccccc1-2)[C@H](NS(=O)(=O)c1ccc(Br)cn1)c1n[nH]c(=O)o1
